Reference: patent US8927507B2, “Selective glycosidase inhibitors and uses thereof” (priority 2011, dated 2015)

Experiments:
human O-GlcNAcase = human O-GlcNAcase (Homo sapiens (Human), UniProt O60502); assay: Assay for determination of Ki values for inhibition of O-GlcNAcase activity (fluorescence-based hOGA); type: biochemical; conditions: purified human O-GlcNAcase 0.7 nM, 4-Methylumbelliferyl N-acetyl-β-D-glucosaminide substrate, pH 7.0, Cheng-Prusoff
Method: Experimental Procedure for Kinetic Analyses: Enzymatic reactions were carried out in a reaction containing 50 mM NaH2PO4, 100 mM NaCl and 0.1% BSA (pH 7.0) using 2 mM 4-Methylumbelliferyl N-acetyl-β-D-glucosaminide dihydrate (Sigma M2133) dissolved in ddH2O, as a substrate. The amount of purified human O-GlcNAcase enzyme used in the reaction was 0.7 nM. Test compound of varying concentrations was added to the enzyme prior to initiation of the reaction. The reaction was performed at room temperature in a 96-well plate and was initiated with the addition of substrate. The production of fluorescent product was measured every 60 sec for 45 min with a Tecan Infinite M200 plate-reader with excitation at 355 nm and emission detected at […], with 4-Methylumbelliferone (Sigma M1381) used to produce a standard curve. The slope of product production was determined for each concentration of compound tested and plotted, using standard curve fitting algorithms for sigmoidal dose response curves. The values for a four parameter logistic curve fit of the data were determined.
K1 values were determined using the Cheng-Prusoff equation; the Km of O-GlcNAcase for substrate was 0.2 mM.

O-GlcNAcase = O-GlcNAcase (Rattus norvegicus (Rat), UniProt Q8VIJ5); assay: Cell-based ELISA of O-GlcNAcylated protein (RL-2 antibody) in PC-12 cells; conditions: rat PC-12 cells, 24 h treatment, O-GlcNAcylated protein detected with RL-2 antibody
O-GlcNAcase, sequence (Q8VIJ5 whole entry): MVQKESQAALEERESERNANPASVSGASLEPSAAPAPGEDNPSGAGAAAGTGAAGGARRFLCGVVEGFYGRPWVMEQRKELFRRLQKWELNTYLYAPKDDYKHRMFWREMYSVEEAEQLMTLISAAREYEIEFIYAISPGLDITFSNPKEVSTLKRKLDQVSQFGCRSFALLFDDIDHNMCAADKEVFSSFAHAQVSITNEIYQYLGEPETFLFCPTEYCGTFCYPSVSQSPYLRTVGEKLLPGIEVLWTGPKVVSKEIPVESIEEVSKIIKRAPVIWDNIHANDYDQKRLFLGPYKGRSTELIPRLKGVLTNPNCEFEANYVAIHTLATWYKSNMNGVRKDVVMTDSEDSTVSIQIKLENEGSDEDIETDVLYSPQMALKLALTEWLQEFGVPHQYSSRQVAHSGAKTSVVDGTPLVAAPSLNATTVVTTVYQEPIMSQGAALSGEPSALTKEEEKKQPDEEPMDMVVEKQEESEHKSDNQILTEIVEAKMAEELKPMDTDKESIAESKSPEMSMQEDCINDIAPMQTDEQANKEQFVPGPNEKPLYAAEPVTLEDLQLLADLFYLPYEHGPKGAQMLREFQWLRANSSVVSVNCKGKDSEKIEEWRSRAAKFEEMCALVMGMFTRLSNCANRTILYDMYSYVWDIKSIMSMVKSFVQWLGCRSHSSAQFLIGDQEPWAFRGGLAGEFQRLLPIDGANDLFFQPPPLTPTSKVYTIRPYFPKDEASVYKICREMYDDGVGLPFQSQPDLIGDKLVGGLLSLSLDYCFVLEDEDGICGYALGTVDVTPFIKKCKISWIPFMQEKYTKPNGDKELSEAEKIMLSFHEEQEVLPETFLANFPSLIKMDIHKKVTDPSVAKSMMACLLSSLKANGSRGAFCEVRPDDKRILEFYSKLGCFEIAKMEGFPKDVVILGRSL
Source text: Inhibition of O-GlcNAcase, which removes O-GlcNAc from cellular proteins, results in an increase in the level of O-GlcNAcylated protein in cells. An increase in O-GlcNAcylated protein can be measured by an antibody, such as RL-2, that binds to O-GlcNAcylated protein. The amount of O-GlcNAcylated protein:RL2 antibody interaction can be measured by enzyme linked immunosorbant assay (ELISA) procedures.
A variety of tissue culture cell lines, expressing endogenous levels of O-GlcNAcase, can be utilized; examples include rat PC-12, and human U-87, or SK-N-SH cells. In this assay, rat PC-12 cells were plated in 96-well plates with approximately 10,000 cells/well. […] If desired, the total protein concentration of samples was determined using 20 μl of the sample using the BCA method.
The ELISA portion of the assay was performed in a black Maxisorp 96-well plate that was coated overnight at 4° C. with 100 μL/well of the cell lysate (1:10 dilution of the lysate with PBS containing protease inhibitors, phosphatase inhibitors, and PMSF). […] The detection reaction was incubated for 15 minutes at room temperature and then read with excitation at 530 nm and emission at 590 nm.
The amount of O-GlcNAcylated protein, as detected by the ELISA assay, was plotted for each concentration of test compound using standard curve fitting algorithms for sigmoidal dose response curves. […]

human O-GlcNAcase, sequence (O60502 whole entry): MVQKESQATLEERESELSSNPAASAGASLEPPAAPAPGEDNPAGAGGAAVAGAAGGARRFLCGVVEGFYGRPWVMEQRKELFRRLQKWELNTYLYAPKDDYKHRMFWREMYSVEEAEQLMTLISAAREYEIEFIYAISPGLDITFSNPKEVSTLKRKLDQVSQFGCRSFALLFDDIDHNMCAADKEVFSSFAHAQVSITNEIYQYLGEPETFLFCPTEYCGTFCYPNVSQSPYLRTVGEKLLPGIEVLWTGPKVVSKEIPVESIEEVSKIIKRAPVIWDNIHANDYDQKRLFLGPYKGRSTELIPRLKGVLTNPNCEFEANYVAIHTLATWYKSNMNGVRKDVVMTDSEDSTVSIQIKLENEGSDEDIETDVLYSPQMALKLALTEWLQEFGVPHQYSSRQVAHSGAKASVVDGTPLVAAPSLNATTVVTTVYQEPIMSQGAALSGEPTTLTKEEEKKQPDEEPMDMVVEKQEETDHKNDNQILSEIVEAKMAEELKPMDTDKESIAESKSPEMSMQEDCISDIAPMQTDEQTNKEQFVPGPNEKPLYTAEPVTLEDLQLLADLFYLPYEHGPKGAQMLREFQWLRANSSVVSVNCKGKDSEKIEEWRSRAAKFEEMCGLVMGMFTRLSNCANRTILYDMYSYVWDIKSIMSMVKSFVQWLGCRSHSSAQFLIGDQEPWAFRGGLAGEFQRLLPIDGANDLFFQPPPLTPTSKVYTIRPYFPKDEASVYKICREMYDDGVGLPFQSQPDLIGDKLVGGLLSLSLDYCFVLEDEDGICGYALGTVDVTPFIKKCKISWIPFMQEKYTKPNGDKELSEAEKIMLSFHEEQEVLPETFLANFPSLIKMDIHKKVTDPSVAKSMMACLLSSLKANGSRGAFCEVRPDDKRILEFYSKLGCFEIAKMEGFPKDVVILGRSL

Compound	Ki (human O-GlcNAcase) [nM]	EC50 (O-GlcNAcase) [nM]
CCCN(C)C1=N[C@@H]2[C@@H](O)[C@H](O)[C@@H](CO)O[C@@H]2S1 [Example 15, (3aR,5R,6S,7R,7aR)-5-(hydroxymethyl)-2-(methyl(propyl)amino)-5,6,7,7a-tetrahydro-3aH-pyrano[3,2-d]thiazole-6,7-diol]	15	196
CCC(=O)NC1=N[C@@H]2[C@@H](O)[C@H](O)[C@@H](CO)O[C@@H]2S1 [Example 22, N-((3aR,5R,6S,7R,7aR)-6,7-dihydroxy-5-(hydroxymethyl)-5,6,7,7a-tetrahydro-3aH-pyrano[3,2-d]thiazol-2-yl)propionamide]	74	–
CCNC(=O)NC1=N[C@@H]2[C@@H](O)[C@H](O)[C@@H](CO)O[C@@H]2S1 [Example 29, 1-((3aR,5R,6S,7R,7aR)-6,7-dihydroxy-5-(hydroxymethyl)-5,6,7,7a-tetrahydro-3aH-pyrano[3,2-d]thiazol-2-yl)-3-ethylurea]	22	–

More lines, in order of falling Ki (human O-GlcNAcase), values ahead:

Ki (human O-GlcNAcase) [nM]	EC50 (O-GlcNAcase) [nM]	Compound
15	–	OC[C@H]1O[C@@H]2SC(NCCCF)=N[C@@H]2[C@@H](O)[C@@H]1O [Example 2, (3aR,5R,6S,7R,7aR)-2-((3-fluoropropyl)amino)-5-(hydroxymethyl)-5,6,7,7a-tetrahydro-3aH-pyrano[3,2-d]thiazole-6,7-diol]
15	–	OC[C@H]1O[C@@H]2SC(NCC3CC3)=N[C@@H]2[C@@H](O)[C@@H]1O [Example 11, (3aR,5R,6S,7R,7aR)-2-((cyclopropylmethyl)amino)-5-(hydroxymethyl)-5,6,7,7a-tetrahydro-3aH-pyrano[3,2-d]thiazole-6,7-diol]
11	–	CON(C)C1=N[C@@H]2[C@@H](O)[C@H](O)[C@@H](CO)O[C@@H]2S1 [Example 18, (3aR,5R,6S,7R,7aR)-5-(hydroxymethyl)-2-(methoxy(methyl)amino)-5,6,7,7a-tetrahydro-3aH-pyrano[3,2-d]thiazole-6,7-diol]
4.4	–	OC[C@H]1O[C@@H]2SC(NCCC3CC3)=N[C@@H]2[C@@H](O)[C@@H]1O [Example 3, (3aR,5R,6S,7R,7aR)-2-(2-Cyclopropylethylamino)-5-(hydroxymethyl)-5,6,7,7a-tetrahydro-3aH-pyrano[3,2-d]thiazole-6,7-diol]
2.8	152	C=CCN(C)C1=N[C@@H]2[C@@H](O)[C@H](O)[C@@H](CO)O[C@@H]2S1 [Example 16, (3aR,5R,6S,7R,7aR)-2-(allyl(methyl)amino)-5-(hydroxymethyl)-5,6,7,7a-tetrahydro-3aH-pyrano[3,2-d]thiazole-6,7-diol]
